In paper PMC4938916, “Effect of mutations to amino acid A301 and F361 in thermostability and catalytic activity of the β-galactosidase from Bacillus subtilis VTCC-DVN-12-01” (BMC Biochemistry, 2016):

Tests used:
Experiment in all cases: o-nitrophenol release at […] nm, Lineweaver-Burk
Assay type in all cases: biochemical
Conditions in all cases: 100 mM buffer Z (1 mM MgSO4, 50 mM 2-mercaptoethanol), pH 7.0, 55 °C; apparent
[1] = biological target: T1, β-galactosidase LacA (LacA-WT) (Bacillus subtilis, UniProt O07012, F346Y, form not given)
T1 construct: gene ganA; full lacA gene (2061 bp) in pET22b(+), C-terminal 6xHis tag kept, E. coli JM109(DE3), Ni ProBond purified, 70 kDa, GH42

[2] = biological target: T2, β-galactosidase LacA (LacA-WT) (Bacillus subtilis, UniProt O07012, A286V, form not given)
T2 construct: gene ganA; full lacA gene (2061 bp) in pET22b(+), C-terminal 6xHis tag kept, E. coli JM109(DE3), Ni ProBond purified, 70 kDa, GH42

[3] = biological target: T3, β-galactosidase LacA (LacA-WT) (Bacillus subtilis, UniProt O07012)
T3 construct: gene ganA; full lacA gene (2061 bp) in pET22b(+), C-terminal 6xHis tag kept, E. coli JM109(DE3), Ni ProBond purified, 70 kDa, GH42
T3 sequence (O07012 whole entry): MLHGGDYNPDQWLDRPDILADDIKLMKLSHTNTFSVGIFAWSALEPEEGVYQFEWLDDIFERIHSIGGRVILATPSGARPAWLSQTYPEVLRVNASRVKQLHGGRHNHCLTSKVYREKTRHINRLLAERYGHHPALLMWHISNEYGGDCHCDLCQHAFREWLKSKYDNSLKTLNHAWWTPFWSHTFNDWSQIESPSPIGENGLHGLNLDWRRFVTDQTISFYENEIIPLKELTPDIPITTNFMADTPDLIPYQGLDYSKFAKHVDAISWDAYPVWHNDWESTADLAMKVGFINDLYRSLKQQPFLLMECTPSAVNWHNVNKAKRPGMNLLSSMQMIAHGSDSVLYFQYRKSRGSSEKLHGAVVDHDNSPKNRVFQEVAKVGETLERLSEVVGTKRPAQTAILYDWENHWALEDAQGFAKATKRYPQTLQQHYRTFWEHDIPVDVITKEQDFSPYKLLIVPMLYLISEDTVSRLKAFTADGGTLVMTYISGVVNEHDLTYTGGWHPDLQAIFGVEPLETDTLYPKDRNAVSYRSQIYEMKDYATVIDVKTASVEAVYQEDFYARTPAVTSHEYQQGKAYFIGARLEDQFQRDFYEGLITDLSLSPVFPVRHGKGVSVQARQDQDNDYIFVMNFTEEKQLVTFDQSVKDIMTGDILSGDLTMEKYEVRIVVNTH

T2 sequence (O07012 whole entry A286V, form open): as the sequence (O07012 whole entry) above, with A286V counted along it
T1 sequence (O07012 whole entry F346Y, form open): as the sequence (O07012 whole entry) above, with F346Y counted along it

Km [1]: 8.02 ± 0.27 mM
Km [2]: 5.57 ± 0.56 mM
Km [3]: 9.28 ± 0.72 mM
Compound: O=[N+]([O-])c1ccccc1O[C@@H]1O[C@H](CO)[C@H](O)[C@H](O)[C@H]1O [oNPG, Ortho-nitrophenyl-β-D-galactopyranoside]
